Species on record: Rattus norvegicus
Experiment: DrugMatrix - Regimen: Daily Repeat
Type: toxicity, organism-based, Sprague-Dawley
Set-up: regimen Daily Repeat, gender Male, age 6-8 weeks
Conditions: in vivo, po, route oral GAVAGE, vehicle 100 % SALINE
[1] = 0 mg/kg, 72 h, tissue Blood, dose level Control, time 3 day
[2] = 0 mg/kg, 72 h, tissue Plasma, dose level Control, time 3 day
[3] = 0 mg/kg, 120 h, tissue Blood, dose level Control, time 5 day
[4] = 0 mg/kg, 120 h, tissue Plasma, dose level Control, time 5 day
[5] = 200 mg/kg, 72 h, tissue Blood, dose level Low, time 3 day
[6] = 200 mg/kg, 72 h, tissue Plasma, dose level Low, time 3 day

With LEAD(IV) ACETATE the “ABSOLUTE BASOPHIL” value [1] was 0 CELLS/uL, the “ABSOLUTE EOSINOPHIL” value [1] was 37 CELLS/uL and the “ABSOLUTE LYMPHOCYTE” value [1] was 12359.33 CELLS/uL. The “ABSOLUTE MONOCYTE” value [1] was 122.67 CELLS/uL, the “ABSOLUTE SEGMENTED NEUTROPHIL” value [1] was 847.67 CELLS/uL and the BASOPHIL [1] was 0%. The EOSINOPHIL [1] was 0.33%, the “ERYTHROCYTE COUNT” value [1] was 5.75 x10E6/uL and the HEMATOCRIT [1] was 36.08%. For the same substance, the “LEUKOCYTE COUNT” value [1] was 13.37 x10E3/uL, the “MEAN CORPUSCULAR HEMOGLOBIN CONCENTRATION” value [1] was 38.98 G/DL and the MONOCYTE [1] was 1%. For the same substance, the NEUTROPHIL [1] was 6.17%, the “NUCLEATED RED BLOOD CELLS” value [1] was 0.17 /100WBC and the “PLATELET COUNT” value [1] was 1202.17 x10E3/uL. The “ALANINE AMINOTRANSFERASE” value [2] was 50.67 u/L, the “ALKALINE PHOSPHATASE” value [2] was 356.33 u/L and the “ASPARTATE AMINOTRANSFERASE” value [2] was 78.17 u/L. The “BLOOD UREA NITROGEN” value [2] was 14.17 mg/dL, the “CARBON DIOXIDE” value [2] was 31.33 mmol/L and the CHLORIDE [2] was 98.5 MEQ/L. The CHOLESTEROL [2] was 76.5 mg/dL, the “CREATINE PHOSPHOKINASE” value [2] was 248.33 u/L and the CREATININE [2] was 0.2 mg/dL. The “LACTATE DEHYDROGENASE” value [2] was 107 u/L, the LIPASE [2] was 9.83 u/L and the PHOSPHORUS [2] was 12.8 mg/dL. For the same substance, the POTASSIUM [2] was 6.75 MEQ/L, the “TOTAL BILIRUBIN” value [2] was 0.18 mg/dL and the “TOTAL PROTEIN” value [2] was 5.98 G/DL. For the same substance, the “URIC ACID” value [2] was 1.42 mg/dL, the “ABSOLUTE BASOPHIL” value [3] was 0 CELLS/uL and the “ABSOLUTE EOSINOPHIL” value [3] was 0 CELLS/uL. For the same substance, the “ABSOLUTE LYMPHOCYTE” value [3] was 8681.17 CELLS/uL, the “ABSOLUTE MONOCYTE” value [3] was 79.83 CELLS/uL and the “ABSOLUTE SEGMENTED NEUTROPHIL” value [3] was 689 CELLS/uL. The BASOPHIL [3] was 0%, the EOSINOPHIL [3] was 0% and the “ERYTHROCYTE COUNT” value [3] was 5.49 x10E6/uL. For the same substance, the HEMATOCRIT [3] was 33.55%, the HEMOGLOBIN [3] was 13.1 G/DL and the “LEUKOCYTE COUNT” value [3] was 9.45 x10E3/uL. The LYMPHOCYTE [3] was 92.33%, the “MEAN CORPUSCULAR HEMOGLOBIN” value [3] was 23.92 pg and the “MEAN CORPUSCULAR HEMOGLOBIN CONCENTRATION” value [3] was 39.07 G/DL. The MONOCYTE [3] was 0.67%, the NEUTROPHIL [3] was 7% and the “NUCLEATED RED BLOOD CELLS” value [3] was 0.17 /100WBC. For the same substance, the “PLATELET COUNT” value [3] was 1001.17 x10E3/uL, the “ALANINE AMINOTRANSFERASE” value [4] was 49.33 u/L and the “ALKALINE PHOSPHATASE” value [4] was 300.33 u/L. The “ASPARTATE AMINOTRANSFERASE” value [4] was 83.5 u/L, the “BLOOD UREA NITROGEN” value [4] was 16 mg/dL and the CHLORIDE [4] was 100.5 MEQ/L. For the same substance, the CHOLESTEROL [4] was 74.33 mg/dL, the “CREATINE PHOSPHOKINASE” value [4] was 489.67 u/L and the CREATININE [4] was 0.35 mg/dL. The GLUCOSE [4] was 151 mg/dL, the “LACTATE DEHYDROGENASE” value [4] was 133.67 u/L and the LIPASE [4] was 11.17 u/L. It also gave a PHOSPHORUS [4] of 10.88 mg/dL, a POTASSIUM [4] of 5.5 MEQ/L and an SODIUM [4] of 145.7 MEQ/L. The “TOTAL BILIRUBIN” value [4] was 0.2 mg/dL, the “TOTAL PROTEIN” value [4] was 6.05 G/DL and the “URIC ACID” value [4] was 0.68 mg/dL. The “ABSOLUTE BASOPHIL” value [5] was 0 CELLS/uL, the “ABSOLUTE EOSINOPHIL” value [5] was 125.67 CELLS/uL and the “ABSOLUTE LYMPHOCYTE” value [5] was 10005 CELLS/uL. The “ABSOLUTE MONOCYTE” value [5] was 182.33 CELLS/uL, the “ABSOLUTE SEGMENTED NEUTROPHIL” value [5] was 487 CELLS/uL and the BASOPHIL [5] was 0%. For the same substance, the EOSINOPHIL [5] was 1%, the “ERYTHROCYTE COUNT” value [5] was 5.79 x10E6/uL and the HEMATOCRIT [5] was 34.9%. For the same substance, the HEMOGLOBIN [5] was 13.63 G/DL, the “LEUKOCYTE COUNT” value [5] was 10.8 x10E3/uL and the LYMPHOCYTE [5] was 92.67%. The “MEAN CORPUSCULAR HEMOGLOBIN” value [5] was 23.53 pg, the “MEAN CORPUSCULAR HEMOGLOBIN CONCENTRATION” value [5] was 39.07 G/DL and the “MEAN CORPUSCULAR VOLUME” value [5] was 60.3 fL. The NEUTROPHIL [5] was 5%, the “NUCLEATED RED BLOOD CELLS” value [5] was 0 /100WBC and the “PLATELET COUNT” value [5] was 964.33 x10E3/uL. For the same substance, the “ALANINE AMINOTRANSFERASE” value [6] was 55.67 u/L, the “ALKALINE PHOSPHATASE” value [6] was 341.67 u/L and the “ASPARTATE AMINOTRANSFERASE” value [6] was 108 u/L. The “BLOOD UREA NITROGEN” value [6] was 12.67 mg/dL, the “CARBON DIOXIDE” value [6] was 29.33 mmol/L and the CHLORIDE [6] was 100 MEQ/L. For the same substance, the CHOLESTEROL [6] was 73.67 mg/dL, the “CREATINE PHOSPHOKINASE” value [6] was 327.67 u/L and the CREATININE [6] was 0.26 mg/dL. For the same substance, the GLUCOSE [6] was 150.33 mg/dL, the “LACTATE DEHYDROGENASE” value [6] was 126.67 u/L and the LIPASE [6] was 14.33 u/L. The POTASSIUM [6] was 6.03 MEQ/L, the “TOTAL BILIRUBIN” value [6] was 0.0667 mg/dL and the “TOTAL PROTEIN” value [6] was 5.93 G/DL. For the same substance, the “URIC ACID” value [6] was 1.2 mg/dL.

Source: ChEMBL document CHEMBL3885881, “DrugMatrix”
